The assay relates to P388 leukemia ip, CD2F1 mice, survival T/C. The experiment in a line: NCI In Vivo Anticancer Drug Screen. Data for tumor model P388 Leukemia (intraperitoneal) in CD2F1 (CDF1) mice. The following applies: endpoint: median survival time, higher = longer survival. The procedure, abridged:
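Mice carrying the transplanted tumor received test compound or vehicle. Survival was recorded in each group, and the value is the treated-group measurement divided by that of the vehicle-treated control group.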

Setting [1] is: dose: 50.0 mg/kg/injection, schedule: Q04DX003 (ip), vehicle: saline with Tween-80.
Setting [2] is: dose: 100.0 mg/kg/injection, schedule: Q01DX009 (ip), vehicle: saline with Tween-80.
[3] abbreviates: dose: 100.0 mg/kg/injection, schedule: Q04DX003 (ip), vehicle: saline with Tween-80.
The mark [4] stands for this setting: dose: 200.0 mg/kg/injection, schedule: Q01DX009 (ip), vehicle: saline with Tween-80.
The mark [5] stands for this setting: dose: 200.0 mg/kg/injection, schedule: Q04DX003 (ip), vehicle: saline with Tween-80.
Where [6] appears, read: dose: 100.0 mg/kg/injection, schedule: Q04DX002 (ip), vehicle: saline with Tween-80.
[7] abbreviates: dose: 200.0 mg/kg/injection, schedule: Q04DX002 (ip), vehicle: saline with Tween-80.
Where [8] appears, read: dose: 6.25 mg/kg/injection, schedule: Q01DX009 (ip), vehicle: saline with Tween-80.
Where [9] appears, read: dose: 12.5 mg/kg/injection, schedule: Q01DX009 (ip), vehicle: saline with Tween-80.
Where [10] appears, read: dose: 25.0 mg/kg/injection, schedule: Q01DX009 (ip), vehicle: saline with Tween-80.
Where [11] appears, read: dose: 50.0 mg/kg/injection, schedule: Q01DX009 (ip), vehicle: saline with Tween-80.
[12] abbreviates: dose: 50.0 mg/kg/injection, schedule: Q01DX005 (ip), vehicle: saline with Tween-80.
Setting [13] is: dose: 50.0 mg/kg/injection, schedule: Q01DX009 (ip), vehicle: saline.
Setting [14] is: dose: 100.0 mg/kg/injection, schedule: Q01DX009 (ip), vehicle: saline.
The mark [15] stands for this setting: dose: 200.0 mg/kg/injection, schedule: Q01DX009 (ip), vehicle: saline.

Values joined by “and” are separate entries in the source; they are usually repeats but may differ in a detail not shown here. Equal values may be shown once. Toxic doses and inconclusive results are not listed. Square brackets hold non-standard residues; d marks the D form. Peptide text beside a SMILES is read from it. * marks the point of attachment. Cbz = O=C(OCc1ccccc1)*; Nva = CCC[CH](N)C(=O)O

`C[n+]1nnn(/N=C\c2ccccc2)c1N`: the T/C (dose: 12.5 mg/kg/injection, schedule: Q01DX009 (ip), vehicle: Klucel (hydroxypropylcellulose) (HPC)) was 100 % of control; the T/C (dose: 25.0 mg/kg/injection, schedule: Q01DX009 (ip), vehicle: Klucel (hydroxypropylcellulose) (HPC)) is 97 % of control; the T/C (dose: 50.0 mg/kg/injection, schedule: Q01DX009 (ip), vehicle: Klucel (hydroxypropylcellulose) (HPC)) is 104 % of control.
`COC(=O)C12OCC34C(CC5C(C)C6=CC(=O)OC6=CC5(C)C3C(O)C1O)OC(=O)C(O)C24` (stereo unspecified): the T/C (dose: 0.63 mg/kg/injection, schedule: Q01DX005 (ip), vehicle: Klucel (hydroxypropylcellulose) (HPC)) is 150 % of control and the T/C (dose: 1.25 mg/kg/injection, schedule: Q01DX005 (ip), vehicle: Klucel (hydroxypropylcellulose) (HPC)) is 169 % of control.
Turning to `COc1cc(/C=C/c2ccc3ccccc3n2)cc(OC)c1OC`, the T/C was 100 % of control under setting [1]; 86 % of control under setting [2]; 100 % of control under setting [3]; 90 % of control under setting [4]; 100 % of control under setting [5].
Turning to `CCCCCCCCNC(=O)C1C(=O)N(CCCCCCCC)C(=O)/C1=N/N` (stereo unspecified), the T/C by setting is: under setting [6], 100 % of control; under setting [7], 92 % of control.
As for `O=C1c2c(Cl)c(Cl)c(Cl)c(Cl)c2C(=O)N1O`, the T/C runs as follows: under setting [8], 100 % of control; under setting [9], 100 % of control; under setting [10], 104 % of control.
As to `O=S(=O)(Oc1ccc(Cl)cc1)C(F)(F)C(F)(F)C(F)(F)C(F)(F)F`, the T/C is, setting by setting: under setting [11], 105 % of control; under setting [2], 108 % of control; under setting [4], 105 % of control.
In the case of `Oc1c(Cl)cc(Cl)cc1C=Nc1cc(C(F)(F)F)ccc1N1CCc2ccccc2C1`, the T/C is 98 % of control under setting [11], 95 % of control under setting [2] and 96 % of control under setting [4].
As to `O=C1NCC(COc2ccc([N+](=O)[O-])cc2)O1` (stereo unspecified), the T/C reads like this: (dose: 60.0 mg/kg/injection, schedule: Q01DX005 (ip), vehicle: Klucel (hydroxypropylcellulose) (HPC)) 109 % of control; (dose: 120.0 mg/kg/injection, schedule: Q01DX005 (ip), vehicle: Klucel (hydroxypropylcellulose) (HPC)) 90 % of control; (dose: 240.0 mg/kg/injection, schedule: Q01DX005 (ip), vehicle: Klucel (hydroxypropylcellulose) (HPC)) 93 % of control.
As to `CCc1nc2nc(C)cc(C)n2n1`, the T/C reads like this: under setting [10], 100 % of control; under setting [11], 97 % of control; under setting [2], 103 % of control.
For the compound `CCOC(=O)c1sc(SSc2sc(C(=O)OCC)c(-c3ccccc3)c2[N+](=O)[O-])c([N+](=O)[O-])c1-c1ccccc1`, the T/C is, setting by setting: under setting [6], 104 % of control; under setting [7], 107 % of control; (dose: 400.0 mg/kg/injection, schedule: Q04DX002 (ip), vehicle: saline with Tween-80) 118 % of control.
For the compound `O=S(=O)(OCCCl)c1c(F)c(F)c(F)c(F)c1F`, the T/C is 103 % of control (dose: 3.12 mg/kg/injection, schedule: Q01DX009 (ip), vehicle: saline with Tween-80); 109 % of control under setting [8]; 110 % of control under setting [9].
Regarding `Cc1cccc2c(OCC3CO3)cc(=O)[nH]c12` (stereo unspecified), the T/C by setting is: (dose: 25.0 mg/kg/injection, schedule: Q01DX005 (ip), vehicle: saline with Tween-80) 110 % of control; under setting [12], 114 % of control and 118 % of control.
In the case of `N#[O+].O.O=N[O-].O=N[O-].O=N[O-].O=N[O-].[Ru]`, the T/C was 113 % of control (dose: 3.13 mg/kg/injection, schedule: Q04DX003 (ip), vehicle: water); 106 % of control and 118 % of control (dose: 6.25 mg/kg/injection, schedule: Q04DX003 (ip), vehicle: water).
Take `O=CNc1nc[nH]c1-c1noc(=O)[nH]1`: the T/C was 104 % of control (dose: 25.0 mg/kg/injection, schedule: Q04DX002 (ip), vehicle: saline); 104 % of control (dose: 50.0 mg/kg/injection, schedule: Q04DX002 (ip), vehicle: saline); 104 % of control and 110 % of control (dose: 100.0 mg/kg/injection, schedule: Q04DX002 (ip), vehicle: saline).
Turning to `O=C(O)c1cccc([N+](=O)[O-])c1C(=O)c1ccccc1`, the T/C is, setting by setting: under setting [10], 100 % of control; under setting [11], 95 % of control; under setting [1], 91 % of control; under setting [2], 100 % of control; under setting [3], 95 % of control.
For `O=C1CSC(=S)N1c1ccc(Cl)c([N+](=O)[O-])c1`, the T/C is 101 % of control (dose: 25.0 mg/kg/injection, schedule: Q01DX009 (ip), vehicle: saline); 104 % of control and 111 % of control and 92 % of control under setting [13]; 99 % of control and 100 % of control under setting [14]; 117 % of control (dose: 100.0 mg/kg/injection, schedule: Q01DX009 (ip), vehicle: suspension in saline); 102 % of control and 108 % of control under setting [15]; 86 % of control (dose: 200.0 mg/kg/injection, schedule: Q01DX009 (ip), vehicle: suspension in saline).
On to `Cc1ccccc1NC(=O)Nc1ccc(N(CCCl)CCCl)cc1`, for which the T/C was 92 % of control (dose: 50.0 mg/kg/injection, schedule: Q01DX001 (ip), vehicle: Klucel (hydroxypropylcellulose) (HPC)); 109 % of control (dose: 100.0 mg/kg/injection, schedule: Q01DX001 (ip), vehicle: Klucel (hydroxypropylcellulose) (HPC)); 120 % of control (dose: 200.0 mg/kg/injection, schedule: Q01DX001 (ip), vehicle: Klucel (hydroxypropylcellulose) (HPC)).
Take `COc1cc2c(cc1OC)C1C(O)C(OC)C(O)C3=CCN(C2)C31` (stereo unspecified): the T/C under setting [13] was 100 % of control, the T/C under setting [14] is 104 % of control and the T/C under setting [15] is 102 % of control.
Take `NC1CCCCCCC1O` (stereo unspecified): the T/C by setting is: (dose: 5.0 mg/kg/injection, schedule: Q01DX009 (ip), vehicle: saline with Tween-80) 104 % of control; (dose: 5.0 mg/kg/injection, schedule: Q04DX003 (ip), vehicle: saline) 104 % of control; (dose: 10.0 mg/kg/injection, schedule: Q01DX009 (ip), vehicle: saline with Tween-80) 100 % of control; (dose: 10.0 mg/kg/injection, schedule: Q04DX003 (ip), vehicle: saline) 100 % of control; (dose: 20.0 mg/kg/injection, schedule: Q01DX009 (ip), vehicle: saline with Tween-80) 104 % of control; (dose: 20.0 mg/kg/injection, schedule: Q04DX003 (ip), vehicle: saline) 100 % of control.
In the case of `C=C/C(C)=C/[C@H](C)C(=O)C[C@H](O)CC1CC(=O)NC(=O)C1`, the T/C is 102 % of control under setting [8]; 111 % of control (dose: 6.25 mg/kg/injection, schedule: Q04DX003 (ip), vehicle: saline with Tween-80); 118 % of control under setting [9]; 108 % of control (dose: 12.5 mg/kg/injection, schedule: Q04DX003 (ip), vehicle: saline with Tween-80); 155 % of control under setting [10]; 111 % of control (dose: 25.0 mg/kg/injection, schedule: Q04DX003 (ip), vehicle: saline with Tween-80). Further, the T/C was 151 % of control (dose: 35.0 mg/kg/injection, schedule: Q01DX009 (ip), vehicle: saline with Tween-80); 150 % of control under setting [11]; 111 % of control under setting [1]; 168 % of control (dose: 75.0 mg/kg/injection, schedule: Q01DX009 (ip), vehicle: saline with Tween-80); 158 % of control (dose: 75.0 mg/kg/injection, schedule: Q01DX009 (ip), vehicle: saline); 121 % of control under setting [3]. In addition, the T/C was 106 % of control (dose: 150.0 mg/kg/injection, schedule: Q01DX009 (ip), vehicle: saline); 101 % of control and 121 % of control under setting [5].
On to `CCCC(NC(=O)C(Cc1ccccc1)NC(=O)OCc1ccccc1)C(=O)O` (stereo not drawn) (Cbz-Phe-[Nva]-OH; configuration not given here), for which the T/C under setting [12] was 104 % of control; the T/C (dose: 100.0 mg/kg/injection, schedule: Q01DX005 (ip), vehicle: saline with Tween-80) is 101 % of control; the T/C (dose: 200.0 mg/kg/injection, schedule: Q01DX005 (ip), vehicle: saline with Tween-80) is 98 % of control.
Turning to `CC([NH-])CC(C)[NH-].[Cl][Pt+2][Cl]` (stereo unspecified), the T/C (dose: 0.78 mg/kg/injection, schedule: Q04DX002 (ip), vehicle: saline with Tween-80) is 119 % of control.
